Reference: US20260015358A1, “BICYCLIC DERIVATIVES, COMPOSITIONS AND USES THEREOF” (Danatlas Pharmaceuticals Co., Ltd., priority 2023, published 2026)

What was measured:
[1] = molecular target: T1, WRN [UniPro: Q14191 (WRN_HUMAN), N500-C946] (Homo sapiens (Human), UniProt Q14191); assay: WRN ATPase assay (ADP-Glo); type: biochemical; conditions: WRN enzymatic activity assay
[2] = molecular target: T1, WRN [UniPro: Q14191 (WRN_HUMAN), N500-C946]; assay: WRN unwinding assay (FORKF DNA, fluorescence); type: biochemical; conditions: Table 14

T1 sequence (Q14191 500-946): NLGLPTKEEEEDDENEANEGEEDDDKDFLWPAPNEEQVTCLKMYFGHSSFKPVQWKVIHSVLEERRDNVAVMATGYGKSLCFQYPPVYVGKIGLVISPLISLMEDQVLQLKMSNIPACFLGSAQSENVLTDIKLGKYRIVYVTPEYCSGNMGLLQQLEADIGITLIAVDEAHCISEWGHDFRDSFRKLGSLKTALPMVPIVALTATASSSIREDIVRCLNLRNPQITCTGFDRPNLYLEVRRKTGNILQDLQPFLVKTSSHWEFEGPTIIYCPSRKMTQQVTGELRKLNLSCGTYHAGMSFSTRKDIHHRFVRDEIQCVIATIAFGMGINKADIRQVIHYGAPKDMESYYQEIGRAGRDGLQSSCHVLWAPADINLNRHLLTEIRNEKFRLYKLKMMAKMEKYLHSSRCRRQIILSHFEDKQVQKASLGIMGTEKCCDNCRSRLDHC

Row | IC50 [1] [nM] | IC50 [2] [nM] | Structure (SMILES)
1 | < 100 | < 100 | CCc1c(N2CCN(C(=O)CNc3nc(=O)c4ccccc4[nH]3)CC2)c(=O)n2nc(C3=CCOCC3)nc2n1CC(=O)Nc1ccc(C(F)(F)F)cc1Cl [Example 208, N-(2-Chloro-4-(trifluoromethyl)phenyl)-2-(2-(3,6-dihydro-2H-pyran-4-yl)-5-ethyl-7-oxo-6-(4-((4-oxo-1,4-dihydroquinazolin-2-yl)glycyl)piperazin-1-yl)-[1,2,4]triazolo[1,5-a]pyrimidin-4(7H)-yl)acetamide]
2 | < 100 | < 100 | [2H]C([2H])(NC(=O)c1cc(NC)ccc1F)C(=O)N1CCN(c2c(CC)n(CC(=O)Nc3ccc(C(F)(F)F)cc3F)c3nc(C4=CCOCC4)nn3c2=O)CC1 [Example 209, N-(2-(4-(2-(3,6-Dihydro-2H-pyran-4-yl)-5-ethyl-4-(2-((2-fluoro-4-(trifluoromethyl)phenyl)amino)-2-oxoethyl)-7-oxo-4,7-dihydro-[1,2,4]triazolo[1,5-a]pyrimidin-6-yl)piperazin-1-yl)-2-oxoethyl-1,1-d2)-2-fluoro-5-(methylamino)benzamide]
3 | < 100 | < 100 | CCc1c(N2CCN(C(=O)CNC(=O)c3ncnc(C)c3O)CC2)c(=O)n2nc(C3=CCOCC3)nc2n1CC(=O)Nc1ccc(C(F)(F)F)cc1Cl [Example 210, N-(2-(4-(4-(2-((2-Chloro-4-(trifluoromethyl)phenyl)amino)-2-oxoethyl)-2-(3,6-dihydro-2H-pyran-4-yl)-5-ethyl-7-oxo-4,7-dihydro-[1,2,4]triazolo[1,5-a]pyrimidin-6-yl)piperazin-1-yl)-2-oxoethyl)-5-hydroxy-6-methylpyrimidine-4-carboxamide]
4 | < 100 | < 100 | CCc1c(N2CCN(C(=O)CNC(=O)c3cccc(F)c3O)CC2)c(=O)n2nc(C3=CCOCC3)nc2n1CC(=O)Nc1ccc(C(F)(F)F)cc1Cl [Example 211, N-(2-(4-(4-(2-((2-Chloro-4-(trifluoromethyl)phenyl)amino)-2-oxoethyl)-2-(3,6-dihydro-2H-pyran-4-yl)-5-ethyl-7-oxo-4,7-dihydro-[1,2,4]triazolo[1,5-a]pyrimidin-6-yl)piperazin-1-yl)-2-oxoethyl)-3-fluoro-2-hydroxybenzamide]
5 | 100 to 1000 | 100 to 1000 | CCc1c(N2CCN(C(=O)CNC(=O)c3cc(N(C)C)ccc3F)CC2)c(=O)n2nc(C3=CCOCC3)nc2n1CC(=O)Nc1ccc(C(F)(F)F)cc1Cl [Example 212, N-(2-(4-(4-(2-((2-Chloro-4-(trifluoromethyl)phenyl)amino)-2-oxoethyl)-2-(3,6-dihydro-2H-pyran-4-yl)-5-ethyl-7-oxo-4,7-dihydro-[1,2,4]triazolo[1,5-a]pyrimidin-6-yl)piperazin-1-yl)-2-oxoethyl)-5-(dimethylamino)-2-fluorobenzamide]
6 | < 100 | < 100 | CCc1c(N2CCN(C(=O)CNC(=O)c3cc(NC)c(F)cc3F)CC2)c(=O)n2nc(C3=CCOCC3)nc2n1CC(=O)Nc1ccc(C(F)(F)F)cc1F [Example 213, N-(2-(4-(2-(3,6-Dihydro-2H-pyran-4-yl)-5-ethyl-4-(2-((2-fluoro-4-(trifluoromethyl)phenyl)amino)-2-oxoethyl)-7-oxo-4,7-dihydro-[1,2,4]triazolo[1,5-a]pyrimidin-6-yl)piperazin-1-yl)-2-oxoethyl)-2,4-difluoro-5-(methylamino)benzamide]
7 | < 100 | < 100 | CCc1c(N2CCN(C(=O)CNC(=O)c3ccc(F)c(F)c3O)CC2)c(=O)n2nc(C3=CCOCC3)nc2n1CC(=O)Nc1ccc(C(F)(F)F)cc1F [Example 214, N-(2-(4-(2-(3,6-Dihydro-2H-pyran-4-yl)-5-ethyl-4-(2-((2-fluoro-4-(trifluoromethyl)phenyl)amino)-2-oxoethyl)-7-oxo-4,7-dihydro-[1,2,4]triazolo[1,5-a]pyrimidin-6-yl)piperazin-1-yl)-2-oxoethyl)-3,4-difluoro-2-hydroxybenzamide]
8 | < 100 | < 100 | CCc1c(N2CCN(C(=O)CNC(=O)c3cc(NC)ccc3F)CC2)c(=O)n2nc(C3=CCOCC3)nc2n1CC(=O)Nc1ccc(C(F)(F)F)cc1F [Example 215, N-(2-(4-(2-(3,6-dihydro-2H-pyran-4-yl)-5-ethyl-4-(2-((2-fluoro-4-(trifluoromethyl)phenyl)amino)-2-oxoethyl)-7-oxo-4,7-dihydro-[1,2,4]triazolo[1,5-a]pyrimidin-6-yl)piperazin-1-yl)-2-oxoethyl)-2-fluoro-5-(methylamino)benzamide]
9 | < 100 | < 100 | CCc1c(N2CCN(C(=O)CNC(=O)c3nccs3)CC2)c(=O)n2nc(C3=CCOCC3)nc2n1CC(=O)Nc1ccc(C(F)(F)F)cc1F [Example 216, N-(2-(4-(2-(3,6-Dihydro-2H-pyran-4-yl)-5-ethyl-4-(2-((2-fluoro-4-(trifluoromethyl)phenyl)amino)-2-oxoethyl)-7-oxo-4,7-dihydro-[1,2,4]triazolo[1,5-a]pyrimidin-6-yl)piperazin-1-yl)-2-oxoethyl)thiazole-2-carboxamide]
10 | < 100 | < 100 | CCc1c(N2CCN(C(=O)CNC(=O)c3ncco3)CC2)c(=O)n2nc(C3=CCOCC3)nc2n1CC(=O)Nc1ccc(C(F)(F)F)cc1F [Example 217, N-(2-(4-(2-(3,6-Dihydro-2H-pyran-4-yl)-5-ethyl-4-(2-((2-fluoro-4-(trifluoromethyl)phenyl)amino)-2-oxoethyl)-7-oxo-4,7-dihydro-[1,2,4]triazolo[1,5-a]pyrimidin-6-yl)piperazin-1-yl)-2-oxoethyl)oxazole-2-carboxamide]
11 | < 100 | < 100 | CCc1c(N2CCN(C(=O)CNC(=O)c3cc(C)on3)CC2)c(=O)n2nc(C3=CCOCC3)nc2n1CC(=O)Nc1ccc(C(F)(F)F)cc1F [Example 218, N-(2-(4-(2-(3,6-Dihydro-2H-pyran-4-yl)-5-ethyl-4-(2-((2-fluoro-4-(trifluoromethyl)phenyl)amino)-2-oxoethyl)-7-oxo-4,7-dihydro-[1,2,4]triazolo[1,5-a]pyrimidin-6-yl)piperazin-1-yl)-2-oxoethyl)-5-methylisoxazole-3-carboxamide]
12 | < 100 | < 100 | CCc1c(N2CCN(C(=O)CNC(=O)c3ccns3)CC2)c(=O)n2nc(C3=CCOCC3)nc2n1CC(=O)Nc1ccc(C(F)(F)F)cc1F [Example 219, N-(2-(4-(2-(3,6-Dihydro-2H-pyran-4-yl)-5-ethyl-4-(2-((2-fluoro-4-(trifluoromethyl)phenyl)amino)-2-oxoethyl)-7-oxo-4,7-dihydro-[1,2,4]triazolo[1,5-a]pyrimidin-6-yl)piperazin-1-yl)-2-oxoethyl)isothiazole-5-carboxamide]
13 | < 100 | < 100 | CCc1c(N2CCN(C(=O)CNC(=O)c3ccno3)CC2)c(=O)n2nc(C3=CCOCC3)nc2n1CC(=O)Nc1ccc(C(F)(F)F)cc1F [Example 220, N-(2-(4-(2-(3,6-Dihydro-2H-pyran-4-yl)-5-ethyl-4-(2-((2-fluoro-4-(trifluoromethyl)phenyl)amino)-2-oxoethyl)-7-oxo-4,7-dihydro-[1,2,4]triazolo[1,5-a]pyrimidin-6-yl)piperazin-1-yl)-2-oxoethyl)isoxazole-5-carboxamide]
14 | < 100 | < 100 | CCc1c(N2CCN(C(=O)CNC(=O)c3ccon3)CC2)c(=O)n2nc(C3=CCOCC3)nc2n1CC(=O)Nc1ccc(C(F)(F)F)cc1F [Example 221, N-(2-(4-(2-(3,6-Dihydro-2H-pyran-4-yl)-5-ethyl-4-(2-((2-fluoro-4-(trifluoromethyl)phenyl)amino)-2-oxoethyl)-7-oxo-4,7-dihydro-[1,2,4]triazolo[1,5-a]pyrimidin-6-yl)piperazin-1-yl)-2-oxoethyl)isoxazole-3-carboxamide]
15 | < 100 | < 100 | CCc1c(N2CCN(C(=O)CNC(=O)c3ncnc(C)c3O)CC2)c(=O)n2nc(C3=CCOCC3)nc2n1CC(=O)Nc1ccc(C(F)(F)F)cc1F [Example 222, N-(2-(4-(2-(3,6-Dihydro-2H-pyran-4-yl)-5-ethyl-4-(2-((2-fluoro-4-(trifluoromethyl)phenyl)amino)-2-oxoethyl)-7-oxo-4,7-dihydro-[1,2,4]triazolo[1,5-a]pyrimidin-6-yl)piperazin-1-yl)-2-oxoethyl)-5-hydroxy-6-methylpyrimidine-4-carboxamide]
16 | < 100 | 100 to 1000 | CCc1c(N2CCN(C(=O)CNC(=O)c3cc(N(C)C)ccc3F)CC2)c(=O)n2nc(C3=CCOCC3)nc2n1CC(=O)Nc1ccc(C(F)(F)F)cc1F [Example 224, N-(2-(4-(2-(3,6-Dihydro-2H-pyran-4-yl)-5-ethyl-4-(2-((2-fluoro-4-(trifluoromethyl)phenyl)amino)-2-oxoethyl)-7-oxo-4,7-dihydro-[1,2,4]triazolo[1,5-a]pyrimidin-6-yl)piperazin-1-yl)-2-oxoethyl)-5-(dimethylamino)-2-fluorobenzamide]
17 | < 100 | < 100 | [2H]C([2H])(NC(=O)c1ccccc1F)C(=O)N1CCN(c2c(CC)n(C([2H])([2H])C(=O)Nc3ccc(C(F)(F)F)cc3F)c3nc(C4=CCOCC4)nn3c2=O)CC1 [Example 225, N-(2-(4-(2-(3,6-Dihydro-2H-pyran-4-yl)-5-ethyl-4-(2-((2-fluoro-4-(trifluoromethyl)phenyl)amino)-2-oxoethyl-1,1-d2)-7-oxo-4,7-dihydro-[1,2,4]triazolo[1,5-a]pyrimidin-6-yl)piperazin-1-yl)-2-oxoethyl-1,1-d2)-2-fluorobenzamide]
18 | < 100 | < 100 | CCc1c(N2CCN(C(=O)C(=O)Nc3ncco3)CC2)c(=O)n2nc(C3=CCOCC3)nc2n1CC(=O)Nc1ccc(C(F)(F)F)cc1Cl [Example 226, 2-(4-(4-(2-((2-Chloro-4-(trifluoromethyl)phenyl)amino)-2-oxoethyl)-2-(3,6-dihydro-2H-pyran-4-yl)-5-ethyl-7-oxo-4,7-dihydro-[1,2,4]triazolo[1,5-a]pyrimidin-6-yl)piperazin-1-yl)-N-(oxazol-2-yl)-2-oxoacetamide]
